These results are taken from US6818445B2 (Synaptic Pharmaceutical Corporation, priority 1994, dated 2004).

The Ki is a dissociation constant, usually derived from enzyme kinetics or from competition with a known ligand.

Assay [1] deals with T1, 5HT1a receptor (Homo sapiens, UniProt P08908).
T1 sequence (P08908 1-422): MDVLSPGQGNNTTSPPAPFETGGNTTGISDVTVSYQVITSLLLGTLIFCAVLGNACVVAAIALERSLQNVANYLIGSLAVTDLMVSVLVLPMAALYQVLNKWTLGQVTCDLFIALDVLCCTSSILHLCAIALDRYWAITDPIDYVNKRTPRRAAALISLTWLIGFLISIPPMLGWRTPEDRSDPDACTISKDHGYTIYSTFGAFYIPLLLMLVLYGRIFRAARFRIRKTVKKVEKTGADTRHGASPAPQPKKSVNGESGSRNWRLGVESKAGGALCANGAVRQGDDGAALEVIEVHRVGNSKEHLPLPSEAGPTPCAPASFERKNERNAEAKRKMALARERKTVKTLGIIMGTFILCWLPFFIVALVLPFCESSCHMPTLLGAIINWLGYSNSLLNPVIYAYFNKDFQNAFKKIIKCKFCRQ
Put plainly: Binding to cloned human 5HT1a receptor.

The target in assay [2] is human 5HT2 receptor (Homo sapiens, UniProt P28223). The experiment in a line: Binding to human 5HT2 receptor, [3H]ketanserin. The note with it: cloned human receptor.
Sequence of human 5HT2 receptor (P28223 whole entry): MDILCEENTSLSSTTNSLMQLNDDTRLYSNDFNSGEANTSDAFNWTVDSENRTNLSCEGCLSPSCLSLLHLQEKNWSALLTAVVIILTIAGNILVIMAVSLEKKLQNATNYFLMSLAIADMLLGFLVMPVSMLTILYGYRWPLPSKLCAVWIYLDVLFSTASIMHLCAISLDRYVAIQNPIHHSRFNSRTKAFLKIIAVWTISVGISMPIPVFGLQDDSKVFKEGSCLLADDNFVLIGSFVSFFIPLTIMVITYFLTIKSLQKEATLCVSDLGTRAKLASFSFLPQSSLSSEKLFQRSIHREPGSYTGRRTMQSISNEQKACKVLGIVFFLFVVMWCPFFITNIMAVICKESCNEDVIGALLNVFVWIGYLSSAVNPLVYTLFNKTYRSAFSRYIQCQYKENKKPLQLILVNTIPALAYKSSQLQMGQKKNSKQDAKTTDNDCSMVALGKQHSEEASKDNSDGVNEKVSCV
Assay [3] deals with T2, human α2B receptor (Homo sapiens, UniProt P18089).
T2 sequence (P18089 1-450): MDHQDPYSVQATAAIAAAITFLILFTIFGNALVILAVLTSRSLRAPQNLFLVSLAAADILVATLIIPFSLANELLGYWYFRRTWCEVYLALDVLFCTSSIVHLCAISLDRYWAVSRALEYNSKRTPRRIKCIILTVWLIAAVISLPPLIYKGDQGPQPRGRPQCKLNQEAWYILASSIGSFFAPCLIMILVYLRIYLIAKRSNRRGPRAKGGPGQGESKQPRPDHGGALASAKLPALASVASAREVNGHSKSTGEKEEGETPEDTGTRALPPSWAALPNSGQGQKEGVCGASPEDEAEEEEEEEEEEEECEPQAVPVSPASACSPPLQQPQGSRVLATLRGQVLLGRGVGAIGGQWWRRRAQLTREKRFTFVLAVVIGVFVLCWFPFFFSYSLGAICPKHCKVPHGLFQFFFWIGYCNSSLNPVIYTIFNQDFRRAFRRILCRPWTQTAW
Put plainly: Binding to cloned human α2B adrenergic receptor, [3H]rauwolscine.

Assay [4] addresses T3, human α1a receptor (Homo sapiens, UniProt P35348).
T3 sequence (P35348 1-466): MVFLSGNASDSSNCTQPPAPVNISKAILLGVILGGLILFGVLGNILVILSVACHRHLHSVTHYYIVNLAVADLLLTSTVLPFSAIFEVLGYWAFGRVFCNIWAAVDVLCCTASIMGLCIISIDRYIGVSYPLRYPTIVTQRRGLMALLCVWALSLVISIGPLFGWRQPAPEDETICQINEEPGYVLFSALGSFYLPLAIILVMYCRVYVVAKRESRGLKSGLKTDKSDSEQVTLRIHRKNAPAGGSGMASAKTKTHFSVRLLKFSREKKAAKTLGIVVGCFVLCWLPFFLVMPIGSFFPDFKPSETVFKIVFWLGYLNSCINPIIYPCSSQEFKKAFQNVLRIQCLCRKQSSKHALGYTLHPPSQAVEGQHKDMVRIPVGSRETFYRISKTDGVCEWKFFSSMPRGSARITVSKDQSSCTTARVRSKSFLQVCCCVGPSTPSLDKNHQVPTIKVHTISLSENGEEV
Put plainly: Binding to cloned human α1a adrenergic receptor.

The target of assay [5] is human Y4 receptor (Homo sapiens, UniProt P50391). The assay is classed as binding. As to conditions: read-out: Binding Affinity (Ki (nM) vs. ^125I-PYY) Human Receptor Y4; Table 14.
Sequence of human Y4 receptor (P50391 whole entry): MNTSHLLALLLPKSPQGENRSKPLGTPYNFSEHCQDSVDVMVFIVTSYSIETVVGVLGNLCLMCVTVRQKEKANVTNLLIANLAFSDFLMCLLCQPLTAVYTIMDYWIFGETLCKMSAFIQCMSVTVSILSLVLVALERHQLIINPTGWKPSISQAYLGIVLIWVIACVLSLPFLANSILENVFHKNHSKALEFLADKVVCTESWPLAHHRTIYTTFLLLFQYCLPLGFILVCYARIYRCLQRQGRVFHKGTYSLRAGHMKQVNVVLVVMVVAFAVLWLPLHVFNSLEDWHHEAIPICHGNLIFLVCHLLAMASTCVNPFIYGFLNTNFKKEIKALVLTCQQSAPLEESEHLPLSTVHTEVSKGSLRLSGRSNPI
In assay [6] the target is T4, human α2C receptor (Homo sapiens, UniProt P18825).
T4 sequence (P18825 1-462): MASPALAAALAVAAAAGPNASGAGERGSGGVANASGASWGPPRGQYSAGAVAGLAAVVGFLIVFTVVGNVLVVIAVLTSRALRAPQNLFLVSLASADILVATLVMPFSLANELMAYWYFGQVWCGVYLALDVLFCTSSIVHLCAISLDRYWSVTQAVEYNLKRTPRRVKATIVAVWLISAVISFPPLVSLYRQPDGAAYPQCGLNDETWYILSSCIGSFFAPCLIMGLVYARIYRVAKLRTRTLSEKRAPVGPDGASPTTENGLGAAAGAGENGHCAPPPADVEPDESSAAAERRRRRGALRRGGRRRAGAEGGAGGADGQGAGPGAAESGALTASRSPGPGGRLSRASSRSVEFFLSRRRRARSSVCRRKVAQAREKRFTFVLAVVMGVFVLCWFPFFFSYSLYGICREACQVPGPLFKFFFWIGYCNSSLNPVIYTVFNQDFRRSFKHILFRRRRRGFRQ
Put plainly: Binding to cloned human α2C adrenergic receptor, [3H]rauwolscine.

For assay [7], the target named is human 5HT1Dβ receptor (Homo sapiens, UniProt P28222). Put plainly: Binding to human 5HT1Dβ receptor, [3H]serotonin. The note with it: cloned human receptor.
Sequence of human 5HT1Dβ receptor (P28222 whole entry): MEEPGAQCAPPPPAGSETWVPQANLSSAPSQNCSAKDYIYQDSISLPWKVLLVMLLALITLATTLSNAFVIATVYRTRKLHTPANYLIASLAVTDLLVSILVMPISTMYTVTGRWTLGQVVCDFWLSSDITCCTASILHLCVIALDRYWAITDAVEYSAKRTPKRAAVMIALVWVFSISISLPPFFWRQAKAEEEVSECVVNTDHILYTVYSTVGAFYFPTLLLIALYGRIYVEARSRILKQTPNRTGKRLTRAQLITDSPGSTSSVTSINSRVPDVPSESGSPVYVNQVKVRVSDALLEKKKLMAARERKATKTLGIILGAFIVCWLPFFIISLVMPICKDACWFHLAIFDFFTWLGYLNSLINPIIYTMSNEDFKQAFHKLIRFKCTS
For assay [8], the target named is human dopamine D3 receptor (Homo sapiens, UniProt P35462). Put plainly: Binding to human dopamine D3 receptor, [3H]spiperone. The note with it: cloned human receptor.
Sequence of human dopamine D3 receptor (P35462 whole entry): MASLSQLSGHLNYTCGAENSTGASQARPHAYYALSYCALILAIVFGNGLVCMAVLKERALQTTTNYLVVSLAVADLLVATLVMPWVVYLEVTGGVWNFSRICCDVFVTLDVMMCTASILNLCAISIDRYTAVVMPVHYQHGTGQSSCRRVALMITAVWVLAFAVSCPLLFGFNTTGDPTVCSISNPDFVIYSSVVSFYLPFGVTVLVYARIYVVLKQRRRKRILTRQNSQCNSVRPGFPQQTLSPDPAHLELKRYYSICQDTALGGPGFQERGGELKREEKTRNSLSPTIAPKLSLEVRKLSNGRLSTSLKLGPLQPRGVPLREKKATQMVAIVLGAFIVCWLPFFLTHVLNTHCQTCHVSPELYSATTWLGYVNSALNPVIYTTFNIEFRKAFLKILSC
Assay [9] concerns NPY-induced feeding behavior in satiated rats. The experiment in a line: NPY-induced food intake in satiated rats. The assay is classed as in vivo, rat. The note with it: compound 30 mg/kg i.p., then 300 pmole NPY i.c.v.; 4 hours after NPY.
Method: The rats are individually housed in stainless steel cages and maintained on an 11:13 h light-dark cycle (lights off at 18:00 h) at a controlled temperature of 21-23° C. at all times. Water and food (NAFAG lab chow pellets NAFAG, Gossau, Switzerland) are available ad libidum.
The guide cannula is placed on the dura. Injection cannulas extend the guide cannulas −3.8 mm ventrally to the skull surface. Animals are allowed at least 4 days of recovery postoperatively before being used in the experiments. Cannula placement is checked postoperatively by testing all rats for their drinking response to a 50 ng intracerebroventricular (i.c.v.) injection of angiotensin II. Only rats which drink at least 2.5 ml of water within 30 min. after angiotensin II injection are used in the feeding studies.
All injections are made in the morning 2 hours after light onset. Peptides are injected in artificial cerebrospinal fluid (ACSF) in a volume of 5 μl.
Pellets are then removed from the cage subsequently at each selected time point and replaced with a new set of preweighed pellets. The food intake of animals treated with test compound may be calculated as a percentage of the food intake of control animals i.e., animals treated with vehicle. Alternatively, food intake for each group of animals subjected to a particular experimental condition may be expressed as the mean±S.E.M. Statistical analysis is performed by analysis of variance using the Student-Newman-Keuls test.
Food intake is reported as the mean±S.E.M. intake for a group of animals.

The structures appear in SMILES notation.

With `Cl.Cl.Nc1ccccc1S(=O)(=O)NCC1CCC(CNCC2CCc3ccccc3C2)CC1` (stereo not drawn) [Compound 22], in assay [1], the “Receptor (pKi) 5HT1a” value was found to be 6.56. The “Receptor (pKi) 5HT2” value in assay [2] was 5.99. In addition, the “Receptor (pKi) α2b” value in assay [3] came to 6.43. Moreover, the “Receptor (pKi) α1a” value in assay [4] stood at 7.34. For the same molecule, the Ki in assay [5] amounted to 27500 nM. Moreover, the “Receptor (pKi) α2c” value in assay [6] is recorded as 7.15. For the same molecule, in [7], the “Receptor (pKi) 5HT1Dβ” value was 5.41.

`Cl.O=S(=O)(NC[C@H]1CC[C@H](CNCC2CCc3ccccc3C2)CC1)c1cccc2ccccc12` (stereo partly drawn) [Compound 19]: in assay [1], the “Receptor (pKi) 5HT1a” value worked out at 5.54. In addition, in assay [2], the “Receptor (pKi) 5HT2” value worked out at 6.55. The “Receptor (pKi) α2b” value in assay [3] is 6.58. For the same molecule, the “Receptor (pKi) D3” value in assay [8] stood at 6.69. The “Receptor (pKi) α1a” value in assay [4] is 7.47. In [5], the Ki amounted to 11700 nM. In assay [9], the “Food intake (g) mean ± S.E.M., NPY + compound” value worked out at 1.5 ± 0.6 g.

As to `Cl.O=[N+]([O-])c1ccccc1S(=O)(=O)NC[C@H]1CC[C@H](CNCC2CCc3ccccc3C2)CC1` (stereo partly drawn) [Compound 20], in assay [2], the “Receptor (pKi) 5HT2” value is recorded as 5.93. The “Receptor (pKi) α2b” value in assay [3] came out at 6.96. In addition, the “Receptor (pKi) D3” value in assay [8] is 6.35. For the same molecule, the “Receptor (pKi) α1a” value in [4] was 7.72. Also, in assay [5], the Ki was found to be 20400 nM. The “Receptor (pKi) α2c” value in [6] came out at 7.39. Also, the “Receptor (pKi) 5HT1Dβ” value in assay [7] is recorded as 5.37.
